Results: paper PMC3726599, “A Metabolically-Stabilized Phosphonate Analog of Lysophosphatidic Acid Attenuates Collagen-Induced Arthritis” (PLoS ONE, 2013)

Legend:
recombinant ATX = molecular target: T1, recombinant ATX (Homo sapiens, UniProt Q13822); experiment: TOOS activity assay, LPC hydrolysis by recombinant ATX; format: biochemical; settings: for Vmax of ATX in presence of BrP-LPA: 16:0 LPC 100–400 μΜ, mean(std); for % Inhibition at 10 μΜ: BrP-LPA 10 μΜ; for IC50: [S] 50 μΜ, 2 nM ATX
T1 construct: purchased SinoBiological Inc (main data); R&D (additional Km values)
Method: ATX/LysoPLD activity was assessed based on the amount of choline released from LPC with the use of TOOS (N-ethyl-N-(2-hydoroxy-3-sulfopropyl)-3-methylaniline) reagent. In this assay ATX-mediated LPC-liberated choline is oxidised by choline oxidase to betaine and hydrogen peroxide (H2O2). The latter in the presence of horseradish peroxidase reacts with TOOS and 4-aminoantipyrene (4-AAP) to form a pink quinoneimine dye measured at 555 nm.
Diluted plasma samples (100 fold dilution; final EDTA concentration 0.5 mM) or recombinant ATX protein (2 nM) were incubated with LPC in the presence of 100 mmol/l Tris–HCl/pH 9.0, 500 mmol/l NaCl, 5 mmol/l MgCl2, 5 mmol/l CaCl2, 60 μM CoCl2 and 0.05% Triton X-100 for 3 h at 37°C at a final volume of 100 μl. It should be noted that EDTA was used not only as an anticoagulant but also as an inhibitor of ATX activity ex vivo [46], in order to suppress artificial LPA production during blood withdrawal and plasma preparation; this is because the same samples were used in phospholipid measurements.
The liberated choline was detected by adding 100 μl of a color mix containing 4-AAP and TOOS (0.3 mM), horseradish peroxidase (5.3 UnitmL^−1) and choline oxidase (2 UnitmL^−1). Absorbance was measured at 555 nm and data were analyzed using the statistical software package Prism 4.0 (Graphpad Software Inc, La Jolla, CA, USA). For each sample and control the absorbance was plotted against time and the slope (da/min) for the linear (steady-state) portion of each reaction profile was calculated. Absorbance units were converted to nmol of choline/min/ml by comparison with a choline standard curve or by use of the extinction coefficient for the quinoneimine dye according to the following equation: [drawing 1] Where Vt* is the total volume of reaction in ml (0.2 ml); Vs* is the volume of sample in ml; e is the millimolar extinction coefficient of quinoneimine dye under the assay conditions (e = e = […]); and 1/2: Factor based on the fact that 1 mol of hydrogen peroxide produces 1/2 mol of quinoneimine dye.
The biochemistry of lyso-PLD was assessed by following the kinetics data using a wide panel of different ATX substrates [FS-3, different LPC species (14:0, 16:0, 18:0, 18:1)], three different recombinant ATX proteins (R&D, Sino-Biological and Echelon) and three different ATX activity assays (FS-3, TOOS, Amplex Red). The ATX activity was measured at different substrate concentrations (typically from 1-1000 μM) in order to examine whether ATX follows Michaelis-Menten kinetics. The Michaelis constant (Km) was obtained by fitting the substrate dependence of V (ATX activity) to a rectangular hyperbola using the non-linear regression analysis of the statistical software package Prism 4.0 (GraphPad Software, Inc.). Km and Vmax were evaluated from the rectangular hyperbola curve with the use of GraphPad software.
For in vitro inhibition measurements, BrP-LPA was dissolved in water as a stock solution (4 mM) and appropriate dilutions were made in water. The inhibition of ATX by BrP-LPA was measured employing 2 nM recombinant ATX, 50 μΜ LPC (14:0, 16:0, 18:0) and 0.01 to 100 μmol/L of BrP-LPA (final concentrations). The in vitro inhibition of ATX by BrP-LPA was evaluated with three different assays (FS-3, Amplex Red, and TOOS). […] BrP-LPA was also tested for its ability to inhibit mouse plasma ATX activity. Diluted mouse plasma was used as the source of ATX and the analysis of inhibition was made with TOOS as the in vitro inhibition assay.
The inhibition model (competitive, noncompetitive, or mixed type inhibition) was evaluated by graphical analysis with Lineweaver–Burk double reciprocal plots (1/[velocity] versus 1/[substrate]) and Cornish-Bowden plot ([substrate]/[velocity] versus [Inhibitor]). These plots were generated by the measurement of ATX activity in the presence of different BrP-LPA concentrations (0–10 μΜ) and increased amounts of 16:0 LPC (100, 200, 400 μΜ). […]

LPA1 = settings: Ca++ mobilization, RH7777 cells; kind of constant not given; read-out: inhibition of LPA1; cited from earlier work
LPA2 = settings: Ca++ mobilization, RH7777 cells; kind of constant not given; read-out: inhibition of LPA2; cited from earlier work
lymphocyte trafficking = test system: lymphocyte trafficking; parameters: method as in PMID 23365076; settings: cited from earlier work

mode of inhibition of ATX lysoPLD activity (recombinant ATX; 16:0 LPC as substrate, Cornish-Bowden and Lineweaver-Burk plots): competitive
Vmax of ATX in presence of BrP-LPA (recombinant ATX; BrP-LPA 1 μM): 51(3) nmole/min/ml
Vmax of ATX in presence of BrP-LPA (recombinant ATX; BrP-LPA 3 μM): 71(4) nmole/min/ml
Vmax of ATX in presence of BrP-LPA (recombinant ATX; BrP-LPA 10 μM): 54(13) nmole/min/ml
% Inhibition at 10 μΜ (recombinant ATX; TOOS, 16:0 LPC 50 μΜ): 80%
% Inhibition at 10 μΜ (recombinant ATX; TOOS, 18:0 LPC 50 μΜ): 70%
Ki (recombinant ATX; TOOS, 18:0 LPC, Cheng-Prusoff from IC50): 600 ± 110 nM
IC50 (recombinant ATX; TOOS, substrate 16:0 LPC, mean±std of two experiments): 700 ± 200 nM
IC50 (recombinant ATX; TOOS, substrate 18:0 LPC, mean±std): 900 ± 100 nM
SMILES: CCCCCCCCCCCCCCCC(=O)OC[C@@H](O)CC(Br)P(=O)(O)O (stereo partly drawn) [BrP-LPA, 1-bromo-3(S)-hydroxy-4-(palmitoyloxy)butyl-phosphonate]
IC50 (LPA1): 1500 nM
IC50 (LPA2): 1400 nM
lymphocyte trafficking in draining lymph nodes (lymphocyte trafficking): reduce lymphocyte trafficking in draining lymph nodes
